Read-outs that look alike come from different tables or passages of the source.
How the values were obtained:
bio burden = settings: for Log reduction in bio burden: KIMGUARD bag, air RH=20% at 12 m/s over exterior
[1] = rabbits, EU criteria (ECETOC, 1996); solution of 35% or less; cited from earlier work

Substance: hydrogen peroxide [H2O2]
- Pennicylinders Plate count (bio burden; Expt A: initial H2O2 10%, nebulizer 2/18 sec ON/Off for 2 mins, total exposure 5 mins, 40 °C in bag): 0
- Pennicylinders Log reduction of bio burden (bio burden; Expt A: initial H2O2 10%, nebulizer 2/18 sec ON/Off for 2 mins, total exposure 5 mins, 40 °C in bag, 0.0338 g/L delivered): 6.0
- Pennicylinders Plate count (bio burden; Expt B: initial H2O2 30%, nebulizer 8/12 sec ON/Off for 2 mins, total exposure 2 mins, 44 °C in bag): 0
- Pennicylinders Log reduction of bio burden (bio burden; Expt B: initial H2O2 30%, nebulizer 8/12 sec ON/Off for 2 mins, total exposure 2 mins, 44 °C in bag, 0.246 g/L delivered): 6.0
- Log reduction in bio burden (bio burden; within 2 minutes nebulising a 30% peroxide solution): 6
- Log reduction in bio burden (bio burden; within 5 minutes nebulising a 10% peroxide solution): 6
- Classification as skin irritant [1]: would not be classified as skin irritants

Reference: patent US9192164B2, “Membrane sterilization” (SABAN VENTURES PTY LIMITED, priority 2005, dated 2015)
